In ChEMBL document CHEMBL3638560, “Picolinamido-propanoic acid derivatives useful as glucagon receptor antagonists” (2014):

Target: Glucagon receptor (Homo sapiens, UniProt P47871)
Test: Binding Assay: The binding assay was performed by a filtration method in a 384 well format. Membranes at a final protein concentration of 6 μg/well were incubated with 125I-glucagon at 0.3 nM and in the presence of compound for 2 hours at room temperature in a total reaction volume of 40 μL per well. Assay buffer consisted of 50 mM HEPES, pH 7.4, 5 mM MgCl2, 1 mM CaCl2 and 0.2% BSA. 30 μL of the reaction was then transferred to PEI treated filter plates and followed by filter aspiration. Plates were then washed 5x and allowed to dry at room temperature overnight. The next day the bottom of the plate was covered with seal tape and scintillant was added. Total counts retained by the filters were quantified with a Top Count instrument.

Chain of Glucagon receptor (P47871 whole entry): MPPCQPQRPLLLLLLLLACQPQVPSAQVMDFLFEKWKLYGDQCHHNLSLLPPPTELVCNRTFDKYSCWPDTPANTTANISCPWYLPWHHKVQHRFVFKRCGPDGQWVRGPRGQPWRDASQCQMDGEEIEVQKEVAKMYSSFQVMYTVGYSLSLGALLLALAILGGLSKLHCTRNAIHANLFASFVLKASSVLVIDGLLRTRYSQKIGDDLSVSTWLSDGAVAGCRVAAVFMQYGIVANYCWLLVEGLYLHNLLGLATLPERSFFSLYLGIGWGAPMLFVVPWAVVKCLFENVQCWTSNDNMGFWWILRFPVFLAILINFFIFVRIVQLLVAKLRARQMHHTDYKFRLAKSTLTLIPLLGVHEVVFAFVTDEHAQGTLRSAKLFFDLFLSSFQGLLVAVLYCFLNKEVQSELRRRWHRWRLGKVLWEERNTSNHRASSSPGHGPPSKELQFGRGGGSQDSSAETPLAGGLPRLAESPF

Question: With `O=C(O)CCNC(=O)c1ccc(-c2cc(C(F)(F)F)ccc2CNc2ccc(-c3ccc(Cl)cc3C(F)(F)F)cc2)cn1` as the compound, how does the Ki read?
Answer: 47 nM
